# Experimental data taken from US20260027380A1, “TECHNIQUES FOR MAGNETIC NANOCLUSTER-BASED COMBINATION THERAPY” (William Marsh Rice University, priority 2022, published 2026).
# What was measured:
# [1] = test system: MC-38 cells; test: Detection of DNA damage (γ-H2AX staining); format: cell-based, murine; details: without AMF
# Protocol: Hyperthermia treatment may induce lipid peroxidation, DNA damage, protein denaturation, and cell organelle disruption. In addition, carbon-centered free radicals generated from AAPH are highly reactive and can damage lipid, DNA, protein, and other biomolecules, leading to cell death. Thus, to understand the cell-killing mechanisms of IONC-AAPH under AMF, the effects of IONC-AAPH on various cellular components, including DNA, F-actin, mitochondria, gluthathione (GSH), and lipids, were evaluated. γ-H2AX is a sensitive marker of DNA damage and has been extensively used in research and clinical studies. It forms foci around the site of DNA double-strand break (DSB).
# FIG. 7 depicts the quantification of γ-H2AX expression based on fluorescence intensity.
# Detection of DNA damage: The DNA damage induced by IONC-AAPH treatment was detected by γ-H2AX staining. MC-38 cells were seeded in 4-compartment cell culture dishes and cultured overnight. Then the cells were treated with 300 μg Fe/mL of IONC-AAPH or IONC at 37° C. or under AMF for 90 min. Four hours after the treatment, the cells were fixed with 4% paraformaldehyde for 20 min, permeabilized with 0.2% Triton X-100 for 20 min and blocked with 3% bovine serum albumin (BSA) for 30 min at room temperature. […] The cells were imaged with a Nikon A1-Rsi confocal microscope and the fluorescence intensity of γ-H2AX was analyzed with ImageJ software.
# [2] = test system: MC-38 cells; test: Lipid peroxidation (MDA level); format: cell-based, murine; details: without AMF
# Protocol: Further, the effect of IONC-AAPH induced heat and free radicals on lipids was quantified by measuring the level of malondialdehyde (MDA). Malondialdehyde (MDA) is one of the final products of lipid peroxidation. MDA is a widely used biomarker of oxidative stress. Accordingly, the extent of lipid peroxidation after IONC-AAPH treatment was measured via MDA levels. FIG. 12 illustrates a quantification of MDA levels in MC-38 cells 2 hours after treatment. It was observed that the MC-38 cells treated with free AAPH, IONC, and IONC-AAPH, respectively, without AMF, as well as cells treated with IONC under AMF had some increase in MDA levels compared with that of control cells, as shown in FIG. 12. The low levels of lipid peroxidation in these groups may have resulted from the free radicals generated from the slow decomposition of AAPH at 37° C., or the IONC induced fenton/fenton-like reaction, or their combination (IONC-AAPH without AMF).
# Determination of lipid peroxidation: The lipid peroxidation of MC-38 cells was determined by measuring the production of malondialdehyde (MDA). MC-38 cells cultured in 4-compartment cell culture dishes were treated with 300 μg Fe/mL of IONC-AAPH or IONC at 37° C. or under AMF for 2 h. Two hours post the treatment, the cells were lysed, and the MDA levels were quantified using a fluorescence-based MDA Assay Kit following the manufacturer's instructions.
structure (smiles),measurement,setting,value
"CC(C)(N=NC(C)(C)C(=N)N)C(=N)N.Cl.Cl [AAPH, 2,2′-azobis(2-amidinopropane) dihydrochloride]",γ-H2AX foci (DNA damage),[1],low numbers of γ-H2AX foci
same,MDA level vs control cells,[2],some increase
